Experimental findings from ChEMBL document CHEMBL5729353, “Imidazopyridazine and imidazopyridine compounds and uses thereof” (2022) are described below.

Molecules are shown by their SMILES. Bounds are passed on as bounds.

The IC50 is the concentration that inhibits the measured activity by half. The low end stands for greater potency, the high end for weaker potency.

The target of this assay is T1, Activin receptor type-1 (Homo sapiens, UniProt Q04771).
T1 sequence (Q04771 whole entry): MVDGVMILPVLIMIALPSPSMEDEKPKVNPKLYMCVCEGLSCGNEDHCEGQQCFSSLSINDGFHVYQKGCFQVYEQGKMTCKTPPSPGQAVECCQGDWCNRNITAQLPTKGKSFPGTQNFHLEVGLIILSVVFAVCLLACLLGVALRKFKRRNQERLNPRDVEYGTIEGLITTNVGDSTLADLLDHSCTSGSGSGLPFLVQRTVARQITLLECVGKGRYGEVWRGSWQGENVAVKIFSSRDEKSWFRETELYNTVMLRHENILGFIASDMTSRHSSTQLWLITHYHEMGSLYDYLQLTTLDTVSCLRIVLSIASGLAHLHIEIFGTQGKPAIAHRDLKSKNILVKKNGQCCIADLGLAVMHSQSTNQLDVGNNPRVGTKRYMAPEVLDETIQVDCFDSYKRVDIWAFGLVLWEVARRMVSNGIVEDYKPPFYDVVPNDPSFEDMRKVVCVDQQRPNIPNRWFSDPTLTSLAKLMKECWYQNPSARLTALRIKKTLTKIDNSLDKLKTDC
Kind of assay: The enzymatic assays were conducted in white 384-well polystyrene plates in a final volume of 8 μL. The inhibitors were serially diluted in DMSO and added to the plate wells prior to addition of the other reaction components. […] The final concentration of DMSO in the assay was 1% and the enzyme concentration was 0.5 nM for ALK2. […] The reaction was incubated at 25° C. for 1 hr and read on a PHERAstar FS plate reader (BMG Labtech). IC50 determination was performed by fitting percent control activity versus the log of the inhibitor concentration using the IDBS XLFit and GraphPad Prism 5.0 software.

Consider `Cc1nn2c(-c3ccnc4cc(-c5ccncc5)ccc34)cnc2cc1-c1cnn(CC2CCNCC2)c1`, for which the IC50 was < 1 nM.
